Assay results published in US20250146022A1, “STABILISING THE HUMAN SPINDLE BY KIFC1/HSET” (MAX-PLANCK-GESELLSCHAFT ZUR FOERDERUNG DER WISSENSCHAFTEN …, priority 2021, published 2025).

System: KIFC1/HSET-depleted aMTOC-free mouse oocytes
Experiment: Rescue of spindle polarity in KIFC1/HSET-depleted aMTOC-free mouse oocytes (human oocyte mimics)
Format: cell-based
From the text: This domain, together with the conserved, microtubule-binding motor domain, allows KIFC1/HSET to organize microtubules via crosslinking and/or sliding (86). To investigate the requirement of different domains in KIFC1/HSET, the inventors expressed a series of truncation mutants in aMTOC-free mouse oocytes (FIG. 7K). […] To examine whether the motor activity is dispensable for the function of KIFC1/HSET in aMTOC-free mouse oocytes, the inventors depleted endogenous KIFC1/HSET by follicle RNAi and restored expression with wild-type HSET or with HSET(N593K), which crosslinks microtubules but cannot slide (87). […] Together, the inventors infer that the appropriate level of KIFC1/HSET's crosslinking and sliding activities are required for proper bipolar spindle assembly in the absence of aMTOCs.
Mouse follicles were microinjected with 3.5 pl of siRNAs at a needle concentration of 2 μM as previously described (11). For rescue experiments, in vitro grown oocytes were microinjected with 3.5 pl of mRNAs. mClover3-HSET mRNA was microinjected at a needle concentration of 275 ng/μl, mClover3-HSET(N593K) mRNA at 275 ng/μl, mClover3-NUMA(S1955D) mRNA at 400 ng/μl, mClover3-NUMA(S1955A) mRNA at 400 ng/μl, mClover3-NUMA(SpM-4A) mRNA at 400 ng/μl, mClover3-NUMA(ΔMTBD1) mRNA at 400 ng/μl and mClover3-NUMA(ΔMTBD2) mRNA at 400 ng/μl. Oocytes were allowed to express the mRNAs for 3-4 h before release.
To obtain mouse MI spindles, oocytes were incubated at 37° C. for around 7 h after released into dbcAMP-free medium. To obtain porcine and bovine MI spindles, oocytes were incubated at 39° C./5% CO2 for around 11 and 12 h, respectively, after released into RO-3306-free medium. To obtain human MI spindles, oocytes were incubated at 37° C. for around 14 and 15 h after NEBD. None of the oocytes used for immunofluorescence analyses was subjected to live imaging before fixation.
Time-lapse movies of live mouse, bovine and porcine oocytes, and fixed human and mouse spindles were analyzed in 3D using Imaris (Bitplane). To determine the stages of meiosis and to score for spindle instability, the timing of meiotic progression was quantified relative to the timing of NEBD. NEBD was defined as the time point when the sharp boundary between the nucleus and cytoplasm disappeared in the differential interference contrast image (for mouse oocytes) or when the nucleus started collapsing in the H2B channel (for bovine and porcine oocytes). Spindle poles were defined as regions of MAP4 or MAP4-MTBD or α-tubulin intensity that prominently protruded from the main microtubule mass. In FIG. 1D, oocytes with bipolar spindle, in which ends of all microtubules converged at the poles, were scored as having focused poles. […] For mouse oocytes, unfocused poles were further classified into mildly unfocused poles (with partially separated microtubule ends) and severely unfocused poles (with fully separated microtubule ends). In FIG. 4D, bovine and porcine oocytes, in which the spindle maintained a barrel-shaped bipolar morphology and a detectable spindle axis, were scored as having stable spindle poles. Oocytes, in which the spindle lost their initial bipolarity and underwent dynamic remodeling of the pole(s) were scored as having unstable spindle poles. […] Oocytes, in which the spindle had more than two poles, were scored as having multipolar spindle. In FIG. 1H, mouse oocytes, in which the spindle had two well-defined poles, were scored as having bipolar spindle. Mouse oocytes, in which the spindle had two poorly defined poles, were scored as having apolar/round spindle. Mouse oocytes, in which the spindle had more than two poles, were scored as having multipolar spindle. […] Mouse oocytes, in which the spindle lost its barrel shape but contains several weakly associated microtubule bundles, were scored as having disorganized spindle.

Substance: KIFC1/HSET: Recombinant mClover3-tagged human kinesin-14 KIFC1/HSET protein (SEQ ID NO: 1), expressed in 293 cells, microinjected into human oocytes and zygotes
- fold higher probability of having a bipolar spindle vs mimics without introduced KIFC1/HSET (FIG. 3H (left bar)): 3.2 fold
- difference in percentage of bipolar spindles (from around 30% to 96%): 66%
- bipolar spindles (re-introduction of KIFC1/HSET (rescue experiment) in human oocyte mimics, without around 30%, FIG. 3H): around 96%
